# Results: publication PMC10743905, “Design, Synthesis, and In Vitro and In Vivo Bioactivity Studies of Hydrazide–Hydrazones of 2,4-Dihydroxybenzoic Acid” (International Journal of Molecular Sciences, 2023)
# Tested on: Candida krusei ATCC 14243
# Assay: Broth microdilution MIC/MFC
# Assay type: cell-based
# Settings: Pichia kudriavzevii, ATCC14243, read-out: MIC
# Source text: (§1) In vitro antimicrobial activity assays - Methodology
# (§2) The examined compounds 1 - 24 were screened in vitro for antibacterial and antifungal activities using the broth microdilution method according to procedure reported earlier by our research group and European Committee on Antimicrobial Susceptibility Testing (EUCAST) and Clinical and Laboratory Standards Institute (CLSI) guidelines against a panel of reference and clinical or saprophytic strains of microorganisms, in-cluding Gram-positive bacteria, Staphylococcus aureus ATCC 43300 (Methicillin Resistant S. aureus – MRSA), Staphylococcus aureus ATCC 29213 (Methicillin Susceptible S. aureus – MSSA), Staphylococcus epidermidis ATCC 12228, Enterococcus faecalis ATCC 29212, Micro-coccus luteus ATCC 10240, Bacillus subtilis ATCC 6633 and Bacillus cereus ATCC 10876), Gram-negative bacteria (Bordetella bronchiseptica ATCC 4617, Escherichia coli ATCC 25922, Klebsiella pneumoniae ATCC 13883, Proteus mirabilis ATCC 12453, Salmonella typhimurium ATCC 14028 and Pseudomonas aeruginosa ATCC 9027) and fungi belonging to yeasts (Can-dida albicans ATCC 10231, Candida albicans ATCC 2091, Candida parapsilosis ATCC 22019, Candida glabrata ATCC 90030 and Candida krusei ATCC 14243). The microorganisms be-longing to ATCC came from American Type Culture Collection, routinely used for the evaluation of antimicrobials. All the used microbial cultures were first subcultured on nu-trient agar or Sabouraud agar at 35°C for 18-24 h or 30°C for 24-48 h for bacteria and fungi, […]
# (§3) The surface of Mueller-Hinton agar (for bacteria) and RPMI 1640 with MOPS (for fungi) were inoculated with the suspensions of bacterial or fungal species. Microbial suspensions were prepared in sterile saline with an optical density of McFarland standard scale 0.5.
# (§4) Samples containing examined compounds were dissolved in dimethyl sulfoxide (DMSO).
# (§5) Furthermore, bacterial and fungal suspensions were put onto Petri dishes with solid me-dia containing 2 mg/mL of the tested compounds followed incubation at 37°C for 24h and 30°C for 48h for bacteria and fungi, respectively. The inhibition of microbial growth was judged by comparison with a control culture prepared without any sample tested. Ciprof-loxacin, vancomycin, nitrofurantoin, cefuroxime, ampicillin or nystatin (Sigma) were used as a reference antibacterial or antifungal compounds, respectively.
# (§6) Subsequently, the MIC (Minimal Inhibitory Concentration) of the compounds was ex-amined by the microdilution broth method, using their two-fold dilutions in Mueller- […]
# (§7) Hinton broth or (for bacteria) and RPMI 1640 broth with MOPS (for fungi) prepared in 96-well polystyrene plates. Final concentrations of the compounds ranged from 1000 to 0.488 µg/ml. Microbial suspensions were prepared in 0.85% NaCl with an optical density of 0.5 McFarland standard. Next each bacterial or fungal suspension was added per each well containing broth and various concentrations of the examined compounds. After incuba-
row,SMILES,MIC [µg/mL]
1,"CCOc1cc(/C=N/NC(=O)c2ccc(O)cc2O)ccc1OC [Compound 14, N-[(3-ethoxy-4-methoxyphenyl)methylidene]-2,4-dihydroxybenzohydrazide]",> 1000

# Tested on: Candida albicans ATCC 2091
# Assay: Broth microdilution MIC/MFC
# Assay type: cell-based
# Settings: ATCC2091, read-out: MIC
# Source text: as §1, §2, §3, §4, §5, §6, §7
row,SMILES,MIC [µg/mL]
1,"CCOc1cc(/C=N/NC(=O)c2ccc(O)cc2O)ccc1OC [Compound 14, N-[(3-ethoxy-4-methoxyphenyl)methylidene]-2,4-dihydroxybenzohydrazide]",> 1000

# Tested on: Candida parapsilosis ATCC 22019
# Assay: Broth microdilution MIC/MFC
# Assay type: cell-based
# Settings: Lodderomyces parapsilosis, ATCC22019, read-out: MIC
# Source text: as §1, §2, §3, §4, §5, §6, §7
row,SMILES,MIC [µg/mL]
1,"CCOc1cc(/C=N/NC(=O)c2ccc(O)cc2O)ccc1OC [Compound 14, N-[(3-ethoxy-4-methoxyphenyl)methylidene]-2,4-dihydroxybenzohydrazide]",> 1000

# Tested on: Candida albicans ATCC 10231
# Assay: Broth microdilution MIC/MFC
# Assay type: cell-based
# Settings: not given
# Source text: as §1, §2, §3, §4, §5, §6, §7
row,SMILES,MFC/MIC
1,"CCOc1cc(/C=N/NC(=O)c2ccc(O)cc2O)ccc1OC [Compound 14, N-[(3-ethoxy-4-methoxyphenyl)methylidene]-2,4-dihydroxybenzohydrazide]",> 2

# Same assay, conditions: ATCC10231, read-out: MFC
row,SMILES,MFC [µg/mL]
1,"CCOc1cc(/C=N/NC(=O)c2ccc(O)cc2O)ccc1OC [Compound 14, N-[(3-ethoxy-4-methoxyphenyl)methylidene]-2,4-dihydroxybenzohydrazide]",> 1000

# Same assay, conditions: ATCC10231, read-out: MIC
row,SMILES,MIC [µg/mL]
1,"CCOc1cc(/C=N/NC(=O)c2ccc(O)cc2O)ccc1OC [Compound 14, N-[(3-ethoxy-4-methoxyphenyl)methylidene]-2,4-dihydroxybenzohydrazide]",500

# Tested on: Candida glabrata ATCC 90030
# Assay: Broth microdilution MIC/MFC
# Assay type: cell-based
# Settings: Nakaseomyces glabratus, ATCC90030, read-out: MIC
# Source text: as §1, §2, §3, §4, §5, §6, §7
row,SMILES,MIC [µg/mL]
1,"CCOc1cc(/C=N/NC(=O)c2ccc(O)cc2O)ccc1OC [Compound 14, N-[(3-ethoxy-4-methoxyphenyl)methylidene]-2,4-dihydroxybenzohydrazide]",> 1000

# Tested on: not given
# Assay: not given
# Settings: not given
row,SMILES,melting point [°C]
1,"CCOc1cc(/C=N/NC(=O)c2ccc(O)cc2O)ccc1OC [Compound 14, N-[(3-ethoxy-4-methoxyphenyl)methylidene]-2,4-dihydroxybenzohydrazide]",230

# Tested on: Bordetella bronchiseptica ATCC 4617
# Assay: Broth microdilution MIC/MBC
# Assay type: cell-based
# Settings: not given
# Source text: as §1, §2, §3, §4, §5, §6, §7
row,SMILES,MBC/MIC
1,"CCOc1cc(/C=N/NC(=O)c2ccc(O)cc2O)ccc1OC [Compound 14, N-[(3-ethoxy-4-methoxyphenyl)methylidene]-2,4-dihydroxybenzohydrazide]",1

# Same assay, conditions: ATCC4617
SMILES,MBC [µg/mL],MIC [µg/mL]
"CCOc1cc(/C=N/NC(=O)c2ccc(O)cc2O)ccc1OC [Compound 14, N-[(3-ethoxy-4-methoxyphenyl)methylidene]-2,4-dihydroxybenzohydrazide]",1000,1000

# Tested on: Escherichia coli ATCC 25922
# Assay: Broth microdilution MIC/MBC
# Assay type: cell-based
# Settings: ATCC25922
# Source text: as §1, §2, §3, §4, §5, §6, §7
row,SMILES,MIC [µg/mL]
1,"CCOc1cc(/C=N/NC(=O)c2ccc(O)cc2O)ccc1OC [Compound 14, N-[(3-ethoxy-4-methoxyphenyl)methylidene]-2,4-dihydroxybenzohydrazide]",> 1000

# Tested on: Enterococcus faecalis ATCC 29212
# Assay: Broth microdilution MIC/MBC
# Assay type: cell-based
# Settings: ATCC29212, read-out: MIC
# Source text: as §1, §2, §3, §4, §5, §6, §7
row,SMILES,MIC [µg/mL]
1,"CCOc1cc(/C=N/NC(=O)c2ccc(O)cc2O)ccc1OC [Compound 14, N-[(3-ethoxy-4-methoxyphenyl)methylidene]-2,4-dihydroxybenzohydrazide]",> 1000

# Tested on: Bacillus cereus ATCC 10876
# Assay: Broth microdilution MIC/MBC
# Assay type: cell-based
# Settings: not given
# Source text: as §1, §2, §3, §4, §5, §6, §7
row,SMILES,MBC/MIC
1,"CCOc1cc(/C=N/NC(=O)c2ccc(O)cc2O)ccc1OC [Compound 14, N-[(3-ethoxy-4-methoxyphenyl)methylidene]-2,4-dihydroxybenzohydrazide]",> 2

# Same assay, conditions: ATCC10876
row,SMILES,MBC [µg/mL]
1,"CCOc1cc(/C=N/NC(=O)c2ccc(O)cc2O)ccc1OC [Compound 14, N-[(3-ethoxy-4-methoxyphenyl)methylidene]-2,4-dihydroxybenzohydrazide]",> 1000

# Same assay, conditions: ATCC10876, read-out: MIC
row,SMILES,MIC [µg/mL]
1,"CCOc1cc(/C=N/NC(=O)c2ccc(O)cc2O)ccc1OC [Compound 14, N-[(3-ethoxy-4-methoxyphenyl)methylidene]-2,4-dihydroxybenzohydrazide]",500

# Tested on: Klebsiella pneumoniae ATCC 13883
# Assay: Broth microdilution MIC/MBC
# Assay type: cell-based
# Settings: ATCC13883
# Source text: as §1, §2, §3, §4, §5, §6, §7
row,SMILES,MIC [µg/mL]
1,"CCOc1cc(/C=N/NC(=O)c2ccc(O)cc2O)ccc1OC [Compound 14, N-[(3-ethoxy-4-methoxyphenyl)methylidene]-2,4-dihydroxybenzohydrazide]",> 1000

# Tested on: Staphylococcus aureus ATCC 43300
# Assay: Broth microdilution MIC/MBC
# Assay type: cell-based
# Settings: Staphylococcus aureus ATCC 43300 (MRSA)
# Source text: as §1
# as §2, with “antimicrobials.” for “antimicrobials. All the used microbial cultures were first subcultured on nu-trient agar or Sabouraud agar at 35°C for 18-24 h or 30°C for 24-48 h for bacteria and fungi,”
# (§8) Samples containing examined compounds were dissolved in dimethyl sulfoxide (DMSO). […]
# as §6, §7
row,SMILES,MIC [µg/mL]
1,"CCOc1cc(/C=N/NC(=O)c2ccc(O)cc2O)ccc1OC [Compound 14, N-[(3-ethoxy-4-methoxyphenyl)methylidene]-2,4-dihydroxybenzohydrazide]",> 1000

# Tested on: Micrococcus luteus ATCC 10240
# Assay: Broth microdilution MIC/MBC
# Assay type: cell-based
# Settings: not given
# Source text: as §1
# as §2, with “antimicrobials.” for “antimicrobials. All the used microbial cultures were first subcultured on nu-trient agar or Sabouraud agar at 35°C for 18-24 h or 30°C for 24-48 h for bacteria and fungi,”
# as §8, §6, §7
row,SMILES,MBC/MIC
1,"CCOc1cc(/C=N/NC(=O)c2ccc(O)cc2O)ccc1OC [Compound 14, N-[(3-ethoxy-4-methoxyphenyl)methylidene]-2,4-dihydroxybenzohydrazide]",> 8

# Same assay, conditions: ATCC10240
row,SMILES,MBC [µg/mL]
1,"CCOc1cc(/C=N/NC(=O)c2ccc(O)cc2O)ccc1OC [Compound 14, N-[(3-ethoxy-4-methoxyphenyl)methylidene]-2,4-dihydroxybenzohydrazide]",> 1000

# Same assay, conditions: ATCC10240, read-out: MIC
row,SMILES,MIC [µg/mL]
1,"CCOc1cc(/C=N/NC(=O)c2ccc(O)cc2O)ccc1OC [Compound 14, N-[(3-ethoxy-4-methoxyphenyl)methylidene]-2,4-dihydroxybenzohydrazide]",125

# Tested on: Salmonella typhimurium ATCC 14028
# Assay: Broth microdilution MIC/MBC
# Assay type: cell-based
# Settings: Salmonella enterica
# Source text: as §1
# as §2, with “antimicrobials.” for “antimicrobials. All the used microbial cultures were first subcultured on nu-trient agar or Sabouraud agar at 35°C for 18-24 h or 30°C for 24-48 h for bacteria and fungi,”
# as §8, §6, §7
row,SMILES,MIC [µg/mL]
1,"CCOc1cc(/C=N/NC(=O)c2ccc(O)cc2O)ccc1OC [Compound 14, N-[(3-ethoxy-4-methoxyphenyl)methylidene]-2,4-dihydroxybenzohydrazide]",> 1000

# Tested on: Staphylococcus epidermidis ATCC 12228
# Assay: Broth microdilution MIC/MBC
# Assay type: cell-based
# Settings: ATCC12228, read-out: MIC
# Source text: as §1
# as §2, with “antimicrobials.” for “antimicrobials. All the used microbial cultures were first subcultured on nu-trient agar or Sabouraud agar at 35°C for 18-24 h or 30°C for 24-48 h for bacteria and fungi,”
# as §8, §6, §7
row,SMILES,MIC [µg/mL]
1,"CCOc1cc(/C=N/NC(=O)c2ccc(O)cc2O)ccc1OC [Compound 14, N-[(3-ethoxy-4-methoxyphenyl)methylidene]-2,4-dihydroxybenzohydrazide]",> 1000

# Tested on: Pseudomonas aeruginosa ATCC 9027
# Assay: Broth microdilution MIC/MBC
# Assay type: cell-based
# Settings: ATCC9027
# Source text: as §1
# as §2, with “antimicrobials.” for “antimicrobials. All the used microbial cultures were first subcultured on nu-trient agar or Sabouraud agar at 35°C for 18-24 h or 30°C for 24-48 h for bacteria and fungi,”
# as §8, §6, §7
row,SMILES,MIC [µg/mL]
1,"CCOc1cc(/C=N/NC(=O)c2ccc(O)cc2O)ccc1OC [Compound 14, N-[(3-ethoxy-4-methoxyphenyl)methylidene]-2,4-dihydroxybenzohydrazide]",> 1000

# Tested on: Proteus mirabilis ATCC 12453
# Assay: Broth microdilution MIC/MBC
# Assay type: cell-based
# Settings: ATCC12453
# Source text: as §1
# as §2, with “antimicrobials.” for “antimicrobials. All the used microbial cultures were first subcultured on nu-trient agar or Sabouraud agar at 35°C for 18-24 h or 30°C for 24-48 h for bacteria and fungi,”
# as §8, §6, §7
row,SMILES,MIC [µg/mL]
1,"CCOc1cc(/C=N/NC(=O)c2ccc(O)cc2O)ccc1OC [Compound 14, N-[(3-ethoxy-4-methoxyphenyl)methylidene]-2,4-dihydroxybenzohydrazide]",> 1000

# Tested on: Staphylococcus aureus ATCC 29213
# Assay: Broth microdilution MIC/MBC
# Assay type: cell-based
# Settings: ATCC29213
# Source text: as §1
# as §2, with “antimicrobials.” for “antimicrobials. All the used microbial cultures were first subcultured on nu-trient agar or Sabouraud agar at 35°C for 18-24 h or 30°C for 24-48 h for bacteria and fungi,”
# as §8, §6, §7
row,SMILES,MIC [µg/mL]
1,"CCOc1cc(/C=N/NC(=O)c2ccc(O)cc2O)ccc1OC [Compound 14, N-[(3-ethoxy-4-methoxyphenyl)methylidene]-2,4-dihydroxybenzohydrazide]",> 1000

# Tested on: Gram-negative bacteria
# Assay: Broth microdilution, summary over the Gram-negative panel
# Assay type: cell-based
# Settings: not given
# Source text: as §1, §2, §3, §4, §5, §6, §7
SMILES,MBC [µg/mL],MIC [µg/mL]
"CCOc1cc(/C=N/NC(=O)c2ccc(O)cc2O)ccc1OC [Compound 14, N-[(3-ethoxy-4-methoxyphenyl)methylidene]-2,4-dihydroxybenzohydrazide]",> 1000,500 to 1000

# Tested on: Bacillus subtilis ATCC 6633
# Assay: Broth microdilution MIC/MBC
# Assay type: cell-based
# Settings: ATCC6633, read-out: MIC
# Source text: Detailed procedures are presented in the Supplementary Materials. […]
# as §1, §2, §3, §4, §5, §6, §7
row,SMILES,MIC [µg/mL]
1,"CCOc1cc(/C=N/NC(=O)c2ccc(O)cc2O)ccc1OC [Compound 14, N-[(3-ethoxy-4-methoxyphenyl)methylidene]-2,4-dihydroxybenzohydrazide]",> 1000
